Source: patent publication US12568967B2, “Compositions comprising pyridine carboxylate herbicides with synthetic auxin herbicides or auxin transport inhibitors” (priority 2018, dated 2026)
Several values for one entry are separate records, joined by “and”; a condition that tells them apart may be missing. Equal values may be shown once. Read-outs that look alike come from different tables or passages of the source.

Experiments:
[1] = tested on: Matricaria inodora (false chamomile, MATIN); assay: Greenhouse postemergence trial MATIN; assay type: in vivo; settings: c1-3 Compound A 7.5/10/15
[2] = tested on: Veronica hederifolia (ivyleaf speedwell, VERHE); assay: Greenhouse postemergence trial VERHE; assay type: in vivo; settings: for % visual injury: c1-3 Compound A 7.5/10/15
[3] = tested on: Capsella bursa-pastoris (shepherd's purse, CAPBP); assay: Greenhouse postemergence trial CAPBP; assay type: in vivo; settings: c1-3 Compound A 7.5/10/15
[4] = tested on: Papaver rhoeas (corn poppy, PAPRH); assay: Greenhouse postemergence trial PAPRH; assay type: in vivo; settings: c1-3 Compound A 7.5/10/15
[5] = tested on: Stellaria media (chickweed, STEME); assay: Greenhouse postemergence trial STEME; assay type: in vivo; settings: for % visual injury: c1-3 Compound A 7.5/10/15
Procedure: (§1) Seeds of the desired test plant species were planted in a 90:10% v/v (volume/volume) mixture of PRO-MIX® BX (Premier Tech Horticulture, Quakertown, PA, USA) and PROFILE® GREENS GRADE™ (Profile Products LLC, Buffalo Grove, IL, USA) planting mixture, which typically has a pH of 5.2 to 6.2 and an organic matter content of at least 50 percent, in plastic pots with a surface area of 103.2 square centimeters (cm^2). […] The plants were grown for 7-36 days (d) in a greenhouse with an approximate 14-hour (h) photo-period which was maintained at about 23° C. during the day and 22° C. during the night. Nutrients and water were added on a regular basis and supplemental lighting was provided with overhead metal halide 1000-Watt lamps as necessary. The plants were employed for testing when they reached the second or third true leaf stage.
(§2) Emulsifiable concentrates of each of each pyridine carboxylate herbicide (Compound A or Compound B) were prepared at 100 grams acid equivalent per liter (g ae/L). The emulsifiable concentrates also included a safener, cloquintocet-mexyl, at 120 grams active ingredient per liter (g ai/L), unless otherwise noted below. An aliquot of each emulsifiable concentrate was placed in a 25 mL glass vial and diluted with an aqueous mixture of 1.25% (v/v) ACTIROB® B esterified rapeseed oil (Bayer Crop Science, Research Triangle Park, NC, USA) or MSO® Concentrate with LECI-TECH® methylated soybean oil (Loveland Products, Loveland, CO, USA) to obtain concentrated stock solutions at the highest application rate for each herbicide, based upon a 12 milliliter (mL) application volume at a rate of 187 liters per hectare (L/ha). The concentrated stock solutions were further diluted with an aqueous mixture of 1.25% v/v ACTIROB® B or MSO® Concentrate with LECI-TECH® to obtain stock solutions at reduced application rates for each herbicide. Spray solutions of the herbicide combinations (Compound A or Compound B plus synthetic auxin herbicide or auxin transport inhibitor) were prepared by adding weighed amounts or aliquots of the synthetic auxin herbicide or auxin transport inhibitor to the stock solutions of Compound A or Compound B to form 12-mL spray solutions in two-way combinations.
(§3) The spray solutions were applied to the plant material with an overhead Mandel track sprayer equipped with 8002E nozzles calibrated to deliver 187 L/ha over an application area of 0.503 square meters (m^2) at a spray height of 18 inches (43 centimeters (cm)) above the average plant canopy. Control plants were sprayed in the same manner with the solvent blank. All pyridine carboxylate herbicide (component a) application rates are given as “g ae/ha” and all synthetic auxin herbicide or auxin transport inhibitor (component b) application rates are given as “g ai/ha.”
(§4) The treated plants and control plants were placed in a greenhouse as described above and watered by sub-irrigation to prevent wash-off of the test compounds. After 20-22 d, the condition of the test plants as compared with that of the control plants was determined visually and scored on a scale of 0 to 100 percent where 0 corresponds to no injury and 100 corresponds to complete kill.

[6] = tested on: Viola tricolor (wild pansy, VIOTR); assay: Greenhouse postemergence trial VIOTR; settings: for % visual injury: c1-3 Compound A 7.5/10/15;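 on all read-outs here: greenhouse plants sprayed at second to third true leaf stage, injury rated visually after 20-22 d against solvent-blank sprayed controls, 0 meaning no injury and 100 complete kill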
[7] = tested on: Papaver rhoeas (corn poppy), herbicide-resistant (PAPRH-R); assay: Greenhouse postemergence trial PAPRH-R; assay type: in vivo; settings: for % visual injury: c1-3 Compound A 7.5/10/15
[8] = tested on: Galium aparine (cleavers, GALAP); assay: Greenhouse postemergence trial GALAP; assay type: in vivo; settings: c1-3 Compound A 7.5/10/15
Procedure: as §1, §2, §3, §4

[9] = tested on: Lamium purpureum (purple deadnettle, LAMPU); assay: Greenhouse postemergence trial LAMPU; settings: c1-3 Compound A 7.5/10/15
[10] = tested on: Matricaria chamomilla (wild chamomile, MATCH); assay: Greenhouse postemergence trial MATCH; assay type: in vivo;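 further: greenhouse plants sprayed at second to third true leaf stage, injury rated by eye 20-22 d later versus solvent-blank controls on 0–100 scale, 0 no injury, 100 complete kill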
Procedure: (§5) The plants were grown for 7-36 days (d) in a greenhouse with an approximate 14-hour (h) photo-period which was maintained at about 23° C. during the day and 22° C. during the night. Nutrients and water were added on a regular basis and supplemental lighting was provided with overhead metal halide 1000-Watt lamps as necessary. The plants were employed for testing when they reached the second or third true leaf stage.
(§6) The emulsifiable concentrates also included a safener, cloquintocet-mexyl, at 120 grams active ingredient per liter (g ai/L), unless otherwise noted below.
(§7) Control plants were sprayed in the same manner with the solvent blank. All pyridine carboxylate herbicide (component a) application rates are given as “g ae/ha” and all synthetic auxin herbicide or auxin transport inhibitor (component b) application rates are given as “g ai/ha.”
as §4

[11] = tested on: Polygonum convolvulus (wild buckwheat, POLCO); assay: Greenhouse postemergence trial POLCO; assay type: in vivo
[12] = tested on: Ipomoea hederacea (ivyleaf morningglory, IPOHE); assay: Greenhouse postemergence trial IPOHE; assay type: in vivo
Procedure: as §1, §2, §3, §4

[13] = tested on: Chenopodium album L. (common lambsquarters, CHEAL); assay: Greenhouse postemergence trial CHEAL; assay type: in vivo;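 further: greenhouse plants sprayed at second to third true leaf stage, injury rated by eye after 20-22 d versus solvent-blank sprayed controls, 0 = no injury, 100 = complete kill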
Procedure: as §5, §6, §7, §4

[14] = tested on: Helianthus annuus (common sunflower, HELAN); assay: Greenhouse postemergence trial HELAN; assay type: in vivo
Procedure: as §1, §2, §3, §4

[15] = tested on: Matricaria discoidea (pineapple weed, MATMT); assay: Greenhouse postemergence trial MATMT; assay type: in vivo
[16] = tested on: Hordeum vulgare (spring barley, HORVS); assay type: in vivo
Procedure: as §1, §2, §3, §4

[17] = tested on: Triticum aestivum (spring wheat, TRZAS); assay type: in vivo
[18] = tested on: Cirsium arvense (Canadian thistle, CIRAR); assay: Greenhouse postemergence trial CIRAR; assay type: in vivo
Procedure: as §1, §2, §3, §4

[19] = tested on: Glycine max (volunteer soybean, GLXMA); assay: Greenhouse postemergence trial GLXMA; assay type: in vivo
Procedure: as §1, §2, §3, §4

[20] = tested on: Rumex obtusifolius (broad-leaf dock, RUMOB); assay: Greenhouse postemergence trial RUMOB; assay type: in vivo
Procedure: as §1, §2, §3, §4

[21] = tested on: Kochia scoparia (kochia, KCHSC); assay: Greenhouse postemergence trial KCHSC; assay type: in vivo
[22] = tested on: Abutilon theophrasti (velvetleaf, ABUTH); assay: Greenhouse postemergence trial ABUTH; assay type: in vivo
Procedure: as §1, §2, §3, §4

[23] = tested on: Veronica persica (bird's-eye speedwell, VERPE); assay: Greenhouse postemergence trial VERPE; assay type: in vivo
[24] = tested on: Brassica napus (winter rape, BRSNW); assay: Greenhouse postemergence trial BRSNW; assay type: in vivo
[25] = tested on: Amaranthus retroflexus (pigweed, AMARE); assay: Greenhouse postemergence trial AMARE; assay type: in vivo;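 further: Greenhouse-grown plants sprayed at second to third true leaf stage, injury rated by eye after 20-22 d versus solvent-blank sprayed controls, 0 = no injury, 100 = complete kill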
Procedure: as §5, §6, §7, §4

[26] = tested on: Viola arvensis (field violet, VIOAR); assay: Greenhouse postemergence trial VIOAR; assay type: in vivo; settings: c1-3 Compound A 7.5/10/15; c4-5 Fluroxypyr-MHE 100/140; c6-8, c9-11 A 7.5/10/15 + Fluroxypyr-MHE 100, 140 g/ha
[27] = tested on: Anthemis arvensis (field chamomile, ANTAR); assay: Greenhouse postemergence trial ANTAR; assay type: in vivo; settings: c1-3 Compound A 7.5/10/15; c4-5 Fluroxypyr-MHE 100/140; c6-8, c9-11 A 7.5/10/15 + Fluroxypyr-MHE 100, 140 g/ha
[28] = tested on: Cyanus segetum (cornflower, CENCY); assay: Greenhouse postemergence trial CENCY; assay type: in vivo; settings: c1-3 Compound A 7.5/10/15; c4-5 Fluroxypyr-MHE 100/140; c6-8, c9-11 A 7.5/10/15 + Fluroxypyr-MHE 100, 140 g/ha
[29] = tested on: Hordeum vulgare (winter barley, HORVW); assay: Greenhouse postemergence crop phytotoxicity HORVW; assay type: in vivo; settings: c1-3 Compound A 7.5/10/15; c4-5 Fluroxypyr-MHE 100/140; c6-8, c9-11 A 7.5/10/15 + Fluroxypyr-MHE 100, 140 g/ha
[30] = tested on: Triticum aestivum (winter wheat, TRZAW); assay: Greenhouse postemergence crop phytotoxicity TRZAW; assay type: in vivo; settings: c1-3 Compound A 7.5/10/15; c4-5 Fluroxypyr-MHE 100/140; c6-8, c9-11 A 7.5/10/15 + Fluroxypyr-MHE 100, 140 g/ha
[31] = tested on: Sinapis arvensis (wild mustard, SINAR); assay: Greenhouse postemergence trial SINAR; assay type: in vivo; settings: SINAR; alone 280 g/ha
[32] = c4-6 Clopyralid 30/60/120, c7-9, c10-12, c13-15 A 7.5/10/15 + Clopyralid 30, 60, 120 g/ha
[33] = c1-3 Compound A 7.5/10/15, c4-5 Fluroxypyr-MHE 100/140, c6-8, c9-11 A 7.5/10/15 + Fluroxypyr-MHE 100, 140 g/ha
[34] = c4-5 Fluroxypyr-MHE 100/140, c6-8, c9-11 A 7.5/10/15 + Fluroxypyr-MHE 100, 140 g/ha

O=C(O)c1nc(Cl)ccc1Cl [Clopyralid, clopyralid, reference compound]
% visual injury [1, 32]: 35%
% visual injury [2, 32]: 0%
% visual injury [3, 32]: 0%
% visual injury [4, 32]: 0%
% visual injury [5, 32]: 0%
% visual injury [6, 32]: 0%
% visual injury [7, 32]: 0%
% visual injury [8, 32]: 0%
% visual injury [9, 32]: 0%

C#CCOC(=O)c1nc(-c2ccc3cc[nH]c3c2F)c(F)c(N)c1Cl [Compound B, propargyl 4-amino-3-chloro-5-fluoro-6-(7-fluoro-1H-indol-6-yl)pyridine-2-carboxylate]
MATCH % visual injury Obs ([10]; Compound B 10 g/ha (Table 39)): 20%
% visual injury, Obs ([10]; MATCH, applied alone, 10 g/ha): 18%
POLCO % visual injury Obs ([11]; Compound B 10 g/ha (Table 36)): 97%
POLCO % visual injury Obs ([11]; Compound B 10 g/ha (Table 40)): 90%
POLCO % visual injury Obs ([11]; Compound B 10 g/ha (Table 41)): 90%
IPOHE % visual injury Obs ([12]; Compound B 10 g/ha (Table 40)): 0%
IPOHE % visual injury Obs ([12]; Compound B 10 g/ha (Table 41)): 0%
CHEAL % visual injury Obs ([13]; Compound B 10 g/ha (Table 40)): 93%
CHEAL % visual injury Obs ([13]; Compound B 10 g/ha (Table 41)): 93%
HELAN % visual injury Obs ([14]; Compound B 10 g/ha (Table 40)): 100%
HELAN % visual injury Obs ([14]; Compound B 10 g/ha (Table 41)): 100%
MATMT % visual injury Obs ([15]; Compound B 10 g/ha (Table 38)): 20%
MATMT % visual injury Obs ([15]; Compound B 10 g/ha (Table 39)): 20%
HORVS % visual injury Obs ([16]; Compound B 10 g/ha (Table 36)): 0%
HORVS % visual injury Obs ([16]; Compound B 10 g/ha (Table 37)): 0%
% visual injury, Obs ([16]; HORVS, applied alone, 10 g/ha): 0%
TRZAS % visual injury Obs ([17]; Compound B 10 g/ha (Table 36)): 0%
TRZAS % visual injury Obs ([17]; Compound B 10 g/ha (Table 37)): 0%
% visual injury, Obs ([17]; TRZAS, applied alone, 10 g/ha): 0%
CIRAR % visual injury Obs ([18]; Compound B 10 g/ha (Table 36)): 25%
CIRAR % visual injury Obs ([18]; Compound B 10 g/ha (Table 37)): 25%
CIRAR % visual injury Obs ([18]; Compound B 10 g/ha (Table 40)): 55%
CIRAR % visual injury Obs ([18]; Compound B 10 g/ha (Table 41)): 55%
GLXMA % visual injury Obs ([19]; Compound B 10 g/ha (Table 40)): 73%
GLXMA % visual injury Obs ([19]; Compound B 10 g/ha (Table 41)): 73%
VERHE % visual injury Obs ([2]; Compound B 10 g/ha (Table 39)): 70%
RUMOB % visual injury Obs ([20]; Compound B 10 g/ha (Table 40)): 15%
RUMOB % visual injury Obs ([20]; Compound B 10 g/ha (Table 41)): 15%
KCHSC % visual injury Obs ([21]; Compound B 10 g/ha (Table 40)): 73%
KCHSC % visual injury Obs ([21]; Compound B 10 g/ha (Table 41)): 73%
ABUTH % visual injury Obs ([22]; Compound B 10 g/ha (Table 40)): 68%
ABUTH % visual injury Obs ([22]; Compound B 10 g/ha (Table 41)): 68%
VERVE % visual injury Obs ([23]; Compound B 10 g/ha (Table 39)): 80%
plant injury at 10 g/ha ([24]; Brassica napus, post-emergence, BRSNW, applied alone, 10 g/ha, read-out: % visual injury, Obs): 73%
BRSNW % visual injury Obs ([24]; Compound B 10 g/ha (Table 36)): 73%
BRSNW % visual injury Obs ([24]; Compound B 10 g/ha (Table 37)): 73%
BRSNW % visual injury Obs ([24]; Compound B 10 g/ha (Table 39)): 93%
STEME % visual injury Obs ([5]; Compound B 10 g/ha (Table 40)): 90%
STEME % visual injury Obs ([5]; Compound B 10 g/ha (Table 41)): 90%
VIOTR % visual injury Obs ([6]; Compound B 10 g/ha (Table 40)): 8%
VIOTR % visual injury Obs ([6]; Compound B 10 g/ha (Table 41)): 8%
PAPRH-R % visual injury Obs ([7]; Compound B 10 g/ha (Table 38)): 95%
PAPRH-R % visual injury Obs ([7]; Compound B 10 g/ha (Table 39)): 95%
% visual injury, Obs ([25]; AMARE, applied alone, 10 g/ha): 84%
AMARE % visual injury Obs ([25]; Compound B 10 g/ha (Table 36)): 84%
AMARE % visual injury Obs ([25]; Compound B 10 g/ha (Table 40)): 73%
AMARE % visual injury Obs ([25]; Compound B 10 g/ha (Table 41)): 73%

CCCCCCC(C)OC(=O)COc1nc(F)c(Cl)c(N)c1Cl (stereo not drawn) [Fluroxypyr-MHE, fluroxypyr-meptyl, reference compound]
% visual injury [26]: 20%
% visual injury [27]: 30% and 35%
% visual injury [15, 33]: 0%
% visual injury (crop phytotoxicity) [16, 33]: 0%
% visual injury (crop phytotoxicity) [17, 33]: 0%
% visual injury [28]: 60% and 95%
% visual injury (crop phytotoxicity) [29]: 0%
% visual injury [1, 34]: 10% and 15%
% visual injury [2, 34]: 30% and 60%
% visual injury [23, 33]: 70% and 85%
% visual injury [3, 34]: 0%
% visual injury [4, 34]: 10%
% visual injury (crop phytotoxicity) [30]: 0%
% visual injury [5, 34]: 70% and 75%
% visual injury [6, 34]: 50%
% visual injury [7, 34]: 10%
% visual injury [8, 34]: 85% and 95%
% visual injury [9, 34]: 60% and 65%

CCCCC(CC)COC(=O)COc1ccc(Cl)cc1C (stereo not drawn) [MCPA EHE]
% visual injury (Obs) ([10]; MATCH, alone 280 g/ha): 20%
POLCO % visual injury Obs ([11]; MCPA EHE 280 g/ha (Table 41)): 0%
% visual injury (Obs) ([11]; POLCO, alone 280 g/ha): 10%
IPOHE % visual injury Obs ([12]; MCPA EHE 280 g/ha (Table 41)): 78%
% visual injury (Obs) ([13]; CHEAL, alone 280 g/ha): 70%
CHEAL % visual injury Obs ([13]; MCPA EHE 280 g/ha (Table 41)): 73%
% visual injury (Obs) [31]: 80%
HELAN % visual injury Obs ([14]; MCPA EHE 280 g/ha (Table 41)): 90%
% visual injury (Obs) ([16]; HORVS, alone 280 g/ha): 0%
% visual injury (Obs) ([17]; TRZAS, alone 280 g/ha): 0%
% visual injury (Obs) ([18]; CIRAR, alone 280 g/ha): 20%
CIRAR % visual injury Obs ([18]; MCPA EHE 280 g/ha (Table 41)): 23%
GLXMA % visual injury Obs ([19]; MCPA EHE 280 g/ha (Table 41)): 30%
RUMOB % visual injury Obs ([20]; MCPA EHE 280 g/ha (Table 41)): 25%
% visual injury (Obs) ([21]; KCHSC, alone 280 g/ha): 10%
KCHSC % visual injury Obs ([21]; MCPA EHE 280 g/ha (Table 41)): 0%
ABUTH % visual injury Obs ([22]; MCPA EHE 280 g/ha (Table 41)): 5%
% visual injury (Obs) ([24]; BRSNW, alone 280 g/ha): 60%
STEME % visual injury Obs ([5]; MCPA EHE 280 g/ha (Table 41)): 0%
VIOTR % visual injury Obs ([6]; MCPA EHE 280 g/ha (Table 41)): 0%
% visual injury (Obs) ([25]; AMARE, alone 280 g/ha): 50%
AMARE % visual injury Obs ([25]; MCPA EHE 280 g/ha (Table 41)): 30%
